Measured values: ChEMBL document CHEMBL1151438, “In vitro resistance study of rupintrivir, a novel inhibitor of human rhinovirus 3C protease” (Antimicrob Agents Chemother, 2007)

Columns and labels:
[1] = system: rhinovirus B14; experiment: Antiviral activity against HRV14 with 3C protease T129A, T131T/A, T143P mutation infected in human H1-HeLa cells assessed as virus-induced cytopathic effect after 4 passages for 17 days by XTT assay; format: functional, organism-based; settings: Rhinovirus B, 408 h
[2] = system: rhinovirus A39; experiment: Ratio of EC50 for HRV39 infected in human H1-HeLa cells after 1 passage for 7 days to EC50 for wild type HRV39 infected in human H1-HeLa cells; format: functional
[3] = system: rhinovirus A2; experiment: Ratio of EC50 for HRV2 with 3C protease E3E/G, A103A/V, N165T mutation infected in human H1-HeLa cells after 9 passages for 62 days to EC50 for wild type HRV2 infected in human H1-HeLa cells; format: functional
[4] = system: rhinovirus B14; experiment: Antiviral activity against HRV14 with 3C protease T131A mutation infected in human H1-HeLa cells assessed as virus-induced cytopathic effect after 3 days by XTT assay; format: functional, organism-based; settings: Rhinovirus B, 72 h
[5] = system: rhinovirus A39; experiment: Antiviral activity against HRV39 with 3C protease S105T, N130K, L136F mutation infected in human H1-HeLa cells assessed as virus-induced cytopathic effect after 9 passages for 50 days by XTT assay; format: functional, organism-based; settings: Rhinovirus A
[6] = system: rhinovirus B14; experiment: Ratio of EC50 for HRV14 infected in human H1-HeLa cells after 5 passages for 22 days to EC50 for wild type HRV14 infected in human H1-HeLa cells; format: functional
[7] = system: rhinovirus B14; experiment: Ratio of EC50 for HRV14 infected in human H1-HeLa cells after 3 passages for 14 days to EC50 for wild type HRV14 infected in human H1-HeLa cells; format: functional
[8] = system: rhinovirus B14; experiment: Ratio of EC50 for HRV14 with 3C protease Y139H mutation infected in human H1-HeLa cells to EC50 for wild type HRV14 infected in human H1-HeLa cells; format: functional
[9] = system: rhinovirus B14; experiment: Ratio of EC50 for HRV14 with 3C protease T129A, T131A, Y139H, T143P mutation infected in human H1-HeLa cells to EC50 for wild type HRV14 infected in human H1-HeLa cells; format: functional
[10] = system: rhinovirus A2; experiment: Ratio of EC50 for HRV2 infected in human H1-HeLa cells after 10 passages for 66 days to EC50 for wild type HRV2 infected in human H1-HeLa cells; format: functional
[11] = system: rhinovirus A2; experiment: Ratio of EC50 for HRV2 with 3C protease N165T mutation infected in human H1-HeLa cells after 5 passages for 30 days to EC50 for wild type HRV2 infected in human H1-HeLa cells; format: functional
[12] = system: rhinovirus A2; experiment: Antiviral activity against HRV2 with 3C protease N165T mutation infected in human H1-HeLa cells assessed as virus-induced cytopathic effect after 4 passages for 24 days by XTT assay; format: functional, organism-based; settings: Rhinovirus A, 576 h
[13] = system: rhinovirus B14; experiment: Ratio of EC50 for HRV14 with 3C protease with A121A/V, T129A, T131A, T143P, Y139Y/H mutation infected in human H1-HeLa cells after 11 passages for 65 days to EC50 for wild type HRV14 infected in human H1-HeLa cells; format: functional

CCOC(=O)/C=C/[C@H](C[C@@H]1CCNC1=O)NC(=O)[C@@H](CC(=O)[C@@H](NC(=O)c1cc(C)on1)C(C)C)Cc1ccc(F)cc1 [RUPINTRIVIR]
EC50 [1]: 227 nM | Ratio EC50 [2]: 3 | Ratio EC50 [3]: 5 | EC50 [4]: 14 nM | EC50 [5]: 94 nM | Ratio EC50 [6]: 20 | Ratio EC50 [7]: 5 | Ratio EC50 [8]: 1 | Ratio EC50 [9]: 7 | Ratio EC50 [10]: 15 | Ratio EC50 [11]: 2 | EC50 [12]: 44 nM | Ratio EC50 [13]: 16
